Measured values published in patent US20160143944A1, “ANTIMICROBIAL COMPOSITIONS COMPRISING HYPOCHLOROUS ACID AND SILVER” (PURICOE, INC., priority 2013, published 2016).

Tested on: Pseudomonas aeruginosa biofilm
Assay: in vitro wound biofilm model (collagen matrix), biocidal effect
Type: cell-based
Conditions: 20 min at 35° C., 24 h biofilm in collagen matrix
Description: A biofilm test was conducted using hypochlorous acid solutions containing either 200 ppm or 600 ppm AFC. A solution containing a […] combination of silver chelate (30 ppm) and hypochlorous acid (600 ppm) which yielded a final concentration of 200 ppm AFC was also tested. Specifically, the biocidal effects of the solutions were tested using an in vitro wound biofilm model as described in […] et al. (2009), Molnlycke Healthcare. Briefly, a collagen solution was prepared in simulated wound fluid and the collagen was allowed to polymerize at 35° C. for one hour. The collagen matrix was subsequently innoculated with approximately 10^4 colony forming units (CFU) of Pseudomonas aeruginosa and incubated for twenty-four hours. The hypochlorous acid solutions were added to each matrix and incubated at 35° C. for twenty minutes. The tubes were centrifuged to separate the test solutions from the matrices. Subsequently, each matrix was digested with collagenase, washed and any surviving cells were recovered. A biofilm test was conducted to compare the biocidal effects of various hypochlorous acid solutions with or without silver additives, either in form of potassium silver citrate or silver chelate. Specifically, the effects of the solutions on P. aeruginosa biofilm were assessed using an in vitro wound biofilm model as described above. […]

OCl [hypochlorous acid solution, hypochlorous acid]
log reduction of P. aeruginosa colony forming units (CFU) (200 ppm AFC hypochlorous acid solution): one
log reduction of P. aeruginosa colony forming units (CFU) (600 ppm AFC hypochlorous acid solution): seven
